Measured values published in publication PMC9229493, “Talaromarins A–F: Six New Isocoumarins from Mangrove-Derived Fungus Talaromyces flavus TGGP35” (Marine Drugs, 2022).
Values after ≈ are worked out from the molar mass of the structure shown.

Columns and labels:
α-glucosidase = assay: Inhibitory activity against α-glucosidase (PNPG, 405 nm); conditions: read-out: α-glucosidase inhibitory activity IC50; 37 °C, pH 6.8, PNPG substrate
[1] = Antioxidant activity assay (ABTS working solution, 734 nm)
Description: The antioxidant activity assay was based on the reported methods. The assay was performed on a 96-well microplate, the reaction was initiated by adding 10 µL of sample solution to 200 µL of ABTS working solution. […] The inhibition rate of each sample was calculated according to the following formula: inhibition rate = [(Ablank − Acompound)/Ablank] × 100%.

[2] = tested on: S. epidermidis (ATCC 17749); assay: Antibacterial activity, microplate assay; format: cell-based; conditions: Staphylococcus epidermidis, ATCC17749

Row | SMILES | IC50 (α-glucosidase) [µM] | IC50 [1] [µM] | MIC [2] [mg/L]
1 | COC(=O)CC[C@@H]1Cc2ccc(OC)c(O)c2C(=O)O1 [Compound 21, penicimarin N] | 620 |  | 
2 | O=C1O[C@H](CCCO)Cc2cccc(O)c21 [Compound 7, (R)-3-(3-hydroxypropyl)-8-hydroxy-3,4-dihydroisocoumarin] |  | 170 | 
3 | COc1ccc2c(c1O)C(=O)O[C@H](CCC[C@@H](C)O)C2 [Compound 2, Talaromarin B] |  | 28400 | 
4 | CC(=O)CCC[C@@H]1Cc2ccc(O)c(O)c2C(=O)O1 [Compound 6, Talaromarin F] |  | 140 | 
5 | COc1ccc(O)c2c1C(=O)O[C@H](CCCC(C)=O)C2 [Compound 17, penicimarin H] |  | 120 | 
6 | CC(O)CCCC1Cc2c(O)ccc(O)c2C(=O)O1 (centres unmarked) [Compound 11, peniciisocoumarin F] |  | 120 | 
7 | CC(O)CCCC1Cc2c(ccc(O)c2O)C(=O)O1 (centres unmarked) [Compound 10, 5,6-dihydroxy-3-(4-hydroxypentyl)-isochroman-1-one] | 100 | 110 | 
8 | COc1c(C)c(O)cc2cc(C[C@H](C)O)oc(=O)c12 [Compound 23, pestalotiorin] | 540 |  | 
9 | Cc1c(O)cc2cc(CC(C)O)oc(=O)c2c1O (centres unmarked) [Compound 22, 6,8-dihydroxy-3-(2-hydroxypropyl)-7-methyl-1H-isochromen-1-one] |  | 9 | 
10 | COc1c(O)ccc2c1C(=O)O[C@H](CCCC(C)=O)C2 [Compound 18, peniciisocoumarin D] | 380 | 160 | 
11 | Cc1c(C)c2c(c(C)c1O)CCC(C)(C(=O)O)O2 (centres unmarked) [Trolox, trolox, reference compound] |  | 290 | 
12 | O=C(O)c1cn(C2CC2)c2cc(N3CCNCC3)c(F)cc2c1=O [ciprofloxacin] |  |  | 0.195 (≈ 0.589 µM)
13 | COc1ccc2c(c1O)C(=O)O[C@H](CCCO)C2 [Compound 8, peniciisocoumarin C] |  | 130 | 
14 | CC(=O)OCCC[C@@H]1Cc2cccc(O)c2C(=O)O1 [Compound 19, peniciisocoumarin G] |  | 150 | 
15 | COc1c(O)ccc2c1C(=O)OC(CCCO)C2 (centres unmarked) [Compound 9, 7-hydroxy-3-(3-hydroxypropyl)-8-methoxyisochroman-1-one] |  | 100 | 
